In patent US20240425523A1, “Compounds for the Degradation of EGFR Kinase” (Beigene Switzerland GMBH, priority 2023, published 2024):

How the values were obtained:
Assay type in all cases: cell-based
[1] = molecular target: T1, EGFR L858R (BaF3-L858R cells) (Homo sapiens, UniProt P00533, L858R); experiment: Cell degradation of EGFR, HTRF assay, BaF3-L858R cells; settings: 16 h treatment; for DC50: EGFR degradation; for Dmax: maximum percentage of degradation
T1 construct: host or cells: BaF3
How it was run: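 EGFR L858R levels measured by HTRF antibody pair in lysed BaF3-L858R cells after 16 h compound exposure (8-point 5-fold series from 10 uM final, 37° C). Degradation is relative to DMSO-only cells; DC50 fitted with Hill equation, Dmax taken as the largest percent loss.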

[2] = molecular target: T2, p-EGFR L858R (BaF3-L858R cells) (Homo sapiens, UniProt P00533, L858R); experiment: Cell p-EGFR inhibition assay, HTRF, BaF3-L858R cells; settings: 16 h treatment; for Imax (%): maximum percentage of pEGFR inhibition; for IC50: pEGFR inhibition
T2 construct: host or cells: BaF3
How it was run: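 BaF3-L858R cells treated 16 h at 37 °C, 5% CO2 with compound from 10 uM top, 5-fold dilutions, 8 doses, in 0.1% DMSO medium. Lysates read overnight by HTRF p-EGFR antibodies; IC50 fitted to four-parameter curve against DMSO high control.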

[3] = molecular target: p-EGFR Del19/C797S (H1975-clone #23 cells) (Homo sapiens, UniProt P00533); experiment: Cell p-EGFR inhibition assay, HTRF, H1975-clone#23 (DEL19/C797S) cells; settings: 16 h treatment; for Imax (%): maximum percentage of pEGFR inhibition; for IC50: pEGFR inhibition
How it was run: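 Phospho-EGFR read by overnight HTRF on lysates, normalized to DMSO-treated high control; IC50, Hill slope and Imax fitted. Compounds were applied for 16 h (10 uM top, 5-fold steps, 8 doses) to an H1975 single clone carrying only exogenous Del19/C797S EGFR after sgRNA knockout of endogenous copies.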

[4] = molecular target: T3, EGFR-L858R/C797S (H1975-clone #8 cells) (Homo sapiens, UniProt P00533, C797S/L858R); experiment: Cell degradation of EGFR, HTRF assay, H1975-clone#8 (L858R/C797S) cells; settings: 16 h treatment; for DC50: EGFR degradation; for Dmax: maximum percentage of degradation
T3 construct: expressed in transfected cells; host or cells: H1975 (endogenous EGFR knocked out, clone #8)

SMILES | DC50 [1] [nM] | Dmax [1] [%] | Imax (%) [2] [%] | IC50 [2] [nM] | Imax (%) [3] [%] | IC50 [3] [nM] | DC50 [4] [nM] | Dmax [4] [%]
Cc1cc2cc(n1)-c1cnn(C)c1OC[C@H]1CCC(C1)CN1/C(=N/C2=O)Nc2ccc(N3CCN(C4CCN(c5cc(F)c([C@H]6CCC(=O)NC6=O)c(F)c5)CC4)C[C@@H]3CO)cc21 [Example 94, (R)-3-(4-(4-((R)-4-((7^1R,7^3S,E)-1^1,2^6-dimethyl-3-oxo-5^2,5^3-dihydro-1^1H,5^1H-9-oxa-4-aza-5(2,1)-benzo[d]imidazola-2(2,4)-pyridina-1(4,5)-pyrazola-7(1,3)-cyclopentanacyclononaphane-5^6-yl)-3-(hydroxymethyl)piperazin-1-yl)piperidin-1-yl)-2,6-difluorophenyl)piperidine-2,6-dione] | 3.37 | 71.6 | 99.6 | 6.1 | 101.2 | 0.8 | 0.83 | 73.9
COC[C@H]1CN(c2ccc3c(c2)N2CC4CC[C@H](COc5c(c(C(F)(F)F)nn5C)-c5cc(cc(C)n5)C(=O)/N=C/2N3)C4)CCN1C1CCN(c2cc(F)c([C@H]3CCC(=O)NC3=O)c(F)c2)CC1 [Example 95, (R)-3-(4-(4-((R)-4-((7^1R,7^3S,E)-1^1,2^6-dimethyl-3-oxo-1^3-(trifluoromethyl)-5^2,5^3-dihydro-1^1H,5^1H-9-oxa-4-aza-5(2,1)-benzo[d]imidazola-2(2,4)-pyridina-1(4,5)-pyrazola-7(1,3)-cyclopentanacyclononaphane-5^6-yl)-2-(methoxymethyl)piperazin-1-yl)piperidin-1-yl)-2,6-difluorophenyl)piperidine-2,6-dione] | 8.5 | 86.5 | 99.3 | 10.8 | 101 | 4.5 | 12.1 | 79
COC[C@@H]1CN(c2cc3c(cc2C)N/C2=N\C(=O)c4cc(C)nc(c4)-c4cnn(C)c4OC[C@H]4CC[C@H](C4)CN23)CCN1C1CCN(c2cc(F)c([C@H]3CCC(=O)NC3=O)c(F)c2)CC1 [Example 96, (R)-3-(2,6-difluoro-4-(4-((S)-2-(methoxymethyl)-4-((7R,7^3S,E)-1^1,2^6,5^5-trimethyl-3-oxo-5^2,5^3-dihydro-1^1H,5^1H-9-oxa-4-aza-5(2,1)-benzo[d]imidazola-2(2,4)-pyridina-1(4,5)-pyrazola-7(1,3)-cyclopentanacyclononaphane-5^6-yl)piperazin-1-yl)piperidin-1-yl)phenyl)piperidine-2,6-dione] | 3.41 | 86.6 | 100.3 | 6.3 | 100.9 | 0.8 | 3.15 | 82.7
Cc1cc2cc(n1)-c1cnn(C)c1OC[C@H]1CCC(C1)CN1/C(=N/C2=O)Nc2ccc(N3CCN(C4CCN(c5ccc(NC6CCC(=O)NC6=O)nc5C)CC4)CC3)cc21 (stereo partly shown) [Example 98, 3-((5-(4-(4-((7^1R,7^3S,E)-1^1,2^6-dimethyl-3-oxo-5^2,5^3-dihydro-1^1H,5^1H-9-oxa-4-aza-5(2,1)-benzo[d]imidazola-2(2,4)-pyridina-1(4,5)-pyrazola-7(1,3)-cyclopentanacyclononaphane-5^6-yl)piperazin-1-yl)piperidin-1-yl)-6-methylpyridin-2-yl)amino)piperidine-2,6-dione] | 2.6 | 80.6 | 110.3 | 4.7 | 101.3 | 1.4 | 2.49 | 75
Cc1cc2cc(n1)-c1c(C(F)F)nn(C)c1OC[C@H]1CCC(C1)CN1/C(=N/C2=O)Nc2ccc(N3CCN(C4CCN(c5c(F)cc(NC6CCC(=O)NC6=O)cc5F)CC4)CC3)cc21 (stereo partly shown) [Example 99, 3-((4-(4-(4-((7^1R,7^3S,E)-1^3-(difluoromethyl)-1^1,2^6-dimethyl-3-oxo-5^2,5^3-dihydro-1^1H,5^1H-9-oxa-4-aza-5(2,1)-benzo[d]imidazola-2(2,4)-pyridina-1(4,5)-pyrazola-7(1,3)-cyclopentanacyclononaphane-5^6-yl)piperazin-1-yl)piperidin-1-yl)-3,5-difluorophenyl)amino)piperidine-2,6-dione] | 1.06 | 82.3 | 100.3 | 8 | 99.2 | 2.2 | 6 | 85.6
Cc1cc2cc(n1)-c1cnn(C)c1OC[C@H]1CCC(C1)CN1/C(=N/C2=O)Nc2cc(F)c(N3CCN(C4CCN(c5cnc(C6CCC(=O)NC6=O)cc5C)CC4)CC3)cc21 (stereo partly shown) [Example 100, 3-(5-(4-(4-((7^1R,7^3S,E)-5^5-fluoro-1^1,2^6-dimethyl-3-oxo-5^2,5^3-dihydro-1^1H,5^1H-9-oxa-4-aza-5(2,1)-benzo[d]imidazola-2(2,4)-pyridina-1(4,5)-pyrazola-7(1,3)-cyclopentanacyclononaphane-5^6-yl)piperazin-1-yl)piperidin-1-yl)-4-methylpyridin-2-yl)piperidine-2,6-dione] | 3.34 | 72.3 | 107.3 | 6.7 | 101 | 0.5 | 3.07 | 87.3
Cc1cc2cc(n1)-c1c(C)nn(C)c1OC[C@H]1CC[C@H](C1)CN1/C(=N/C2=O)Nc2ccc(N3CCN([C@H]4CCN(c5cnc(C6CCC(=O)NC6=O)cc5C)CC4(F)F)CC3)cc21 (stereo partly drawn) [Example 101, 3-(5-((S)-3,3-difluoro-4-(4-((7^1R,7^3S,E)-1^1,1^3,2^6-trimethyl-3-oxo-5^2,5^3-dihydro-1^1H,5^1H-9-oxa-4-aza-5(2,1)-benzo[d]imidazola-2(2,4)-pyridina-1(4,5)-pyrazola-7(1,3)-cyclopentanacyclononaphane-5^6-yl)piperazin-1-yl)piperidin-1-yl)-4-methylpyridin-2-yl)piperidine-2,6-dione] | 2.22 | 81.8 | 106.4 | 3.5 | 101 | 1 | 1.58 | 90.2
Cc1cc2cc(n1)-c1cnn(C)c1OC[C@H]1CCC(C1)CN1/C(=N/C2=O)Nc2cc(C)c(N3CCN([C@@H]4CCN(c5ccc(C6CCC(=O)NC6=O)nc5C)C[C@@H]4F)CC3)cc21 (stereo partly drawn) [Example 102, 3-(5-((3S,4R)-3-fluoro-4-(4-((7^1R,7^3S,E)-1^1,2^6,5^5-trimethyl-3-oxo-5^2,5^3-dihydro-1^1H,5^1H-9-oxa-4-aza-5(2,1)-benzo[d]imidazola-2(2,4)-pyridina-1(4,5)-pyrazola-7(1,3)-cyclopentanacyclononaphane-5^6-yl)piperazin-1-yl)piperidin-1-yl)-6-methylpyridin-2-yl)piperidine-2,6-dione] | 0.59 | 85.8 | 95 | 1.5 | 100.5 | 0.6 | 0.76 | 91.5
